{"source": "patent US8980936B2", "about": "“Phenoxy-pyrrolidine derivative and its use and compositions” (Thesan Pharmaceuticals, Inc., priority 2007, dated 2015)", "key": {"sebum production": {"tested_on": "sebum production", "settings": "background statement, cited from earlier work"}, "male Syrian hamsters": {"tested_on": "male Syrian hamsters", "test": "Hamster ear model: inhibition of sebum production", "format": "in vivo, Syrian hamster", "description": "The hamster ear model is a validated animal model for testing whether compounds are capable of modulating sebaceous gland function and sebum secretion. Luderschmidt et al, Arch. Derm. Res. 258, 185-191 (1977). This model uses male Syrian hamsters, whose ears contain sebaceous glands. The compound of the invention was screened in this model according to the procedure outlined below. In these studies, the hamsters are topically dosed twice daily (BID) for 2 weeks, 5 days a week (Monday to Friday). Each dose consisted of 25 μl of vehicle control or formulated test article, which was evenly applied to ˜3 cm^2 of the ventral surfaces of both the right and left ears. At sacrifice, skin punches are taken for lipid analysis, histology and skin concentrations of the test compound.\nMale Syrian hamsters aged 9 to 10 weeks were introduced into the laboratory environment and acclimated for 2 weeks prior to use in the study. Each group consisted of 5 animals and run in parallel with vehicle and positive controls. […]\nAnimals were dosed topically twice daily, five days a week, for 2 weeks. Each dose consisted of 25 μl of vehicle control or drug. The dose was applied to the ventral surfaces of both the right and left ears. All animals were sacrificed approximately 18-24 hours after the final dose. The right ears were collected from each animal and used for sebum analysis.\nThe ears were prepped for HPLC analysis in the following manner. One 8 mm distal biopsy punch was taken, just above the anatomical “V” mark in the ear to normalize the sample area. The punch was pulled apart. The ventral biopsy surface (the area where the topical dose was directly applied to the sebaceous glands) was retained for testing and the dorsal surface of the biopsy punch was discarded.\nTissue samples were blown with N2 gas and stored at −80° C. under nitrogen until HPLC analysis. In addition to ear samples, an aliquot of each drug and vehicle (at least 250 μl) was also stored at −80° C. for inclusion in the HPLC analysis.\nHPLC analysis was carried out on an extract of the tissue sample. Tissue samples were contacted with 3 ml of solvent (a 4:1 admixture of 2,2,4-trimethylpentane and isopropyl alcohol). The mixture was shaken for 15 minutes and stored overnight at room temperature, protected from light. The next morning 1 milliliter of water was added to the sample and shaken for 15 minutes. The sample was then centrifuged at approximately 1500 rpm for 15 minutes. Two ml of the organic phase (top layer) was transferred to a glass vial, dried at 37° C., under nitrogen, for approximately 1 hour, and then lyophilized for approximately 48 hours. The samples were then removed from the lyophilizer and each vial was reconstituted with 600 μl of solvent A (trimethylpentane/tetrahydrofuran (99:1). The samples were then recapped and vortexed for 5 minutes.\n200 μl of each sample was then transferred to a pre-labeled 200 μl HPLC vial with 200 μL glass inserts. The HPLC vials were placed in the autosampler tray for the Agilent 1100 series HPLC unit. The Agilent 1100 HPLC system consisted of a thermostated autosampler, a quaternary pump, a column heater, and an A/D interface module. All components were controlled by Agilent ChemStation software. A Waters Spherisorb S3W […] analytical column was maintained at 30° C. by the Agilent column heater unit. The HPLC autosampler was programmed to maintain the sample temperature at 20° C. throughout the run.\n10 μL of each sample was injected in triplicate into the column. Two solvents were used for the solvent gradient. Solvent A was an admixture of trimethylpentane and tetrahydrofuran (99:1). Solvent B was ethyl acetate. The gradient utilized is described in the table below: […]\nThe Sedex 75 Evaporative Light Scattering Detector (ELSD) was operated at 45° C. with a gain of 5, and N2 pressure maintained at 3.1 bar. Analog signal obtained by the instrument was sent to the Agilent A/D interface module where it was converted to a digital output. […]"}, "[1]": {"target": "T1, stearoyl CoA desaturase (SCD1) (Rattus norvegicus, UniProt P07308)", "T1 construct": "Rat liver microsomes are allowed to react with stearoyl-coenzyme A labeled with D3; from tissue", "T1 sequence (P07308 1-358)": "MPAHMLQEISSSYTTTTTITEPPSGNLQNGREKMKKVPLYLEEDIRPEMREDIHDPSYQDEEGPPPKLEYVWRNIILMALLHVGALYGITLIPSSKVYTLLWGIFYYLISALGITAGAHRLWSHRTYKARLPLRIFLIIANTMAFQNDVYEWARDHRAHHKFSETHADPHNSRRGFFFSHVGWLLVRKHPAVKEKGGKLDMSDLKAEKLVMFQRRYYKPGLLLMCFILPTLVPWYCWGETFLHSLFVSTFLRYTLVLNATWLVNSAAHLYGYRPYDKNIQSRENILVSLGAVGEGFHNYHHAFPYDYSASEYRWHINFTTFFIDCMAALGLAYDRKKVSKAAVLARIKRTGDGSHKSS", "test": "Rat microsomal assay: conversion of labeled stearoyl CoA to oleoyl CoA by LC/MS/MS", "format": "biochemical", "settings": "rat liver microsomes; 40 μM substrate (2× Km); mean of N=3; read-out: IC50, inhibition of SCD1 activity (conversion of stearoyl CoA to oleoyl CoA)", "description": "As described below, the assay measures the conversion of labeled stearoyl CoA to oleoyl CoA using LC/MS/MS.\nIn order to increase SCD1 activity in rat liver microsomes, Sprague Dawley rats are fasted for 40 hours. Following fasting diet is replaced with free fatty acid deficient chow ad libitum for 48 hours. Rats are then euthanized using CO2 asphyxiation and their livers are removed. Livers are weighed, minced and placed in homogenization buffer ([…], 50 mM Tris-HCl, pH 7.5, 5 mM EDTA, 1.5 mM GSH) on ice. Microsomes are isolated by homogenization with a polytron and several centrifugation steps. Following final centrifugation, the resulting pellet is resuspended in homogenization buffer and protein concentration is determined. Aliquots are stored at −80° C. until use.\nRat liver microsomes are allowed to react with stearoyl-coenzyme A labeled with D3 in the presence of the compound of Formula I to test the compound's ability to inhibit the conversion of stearoyl-coenzyme A to oleoyl coenzyme A. The reaction is terminated using acetonitrile. Free fatty acids are extracted by saponification of the samples with 2M KOH at 70° C. […] Samples are reconstituted in 9:1 Methanol:Water, with 2 ug/ml heptadecanoic acid added as an internal standard, and analyzed by LC/MS/MS. The ability to inhibit the conversion of stearoyl CoA to oleoyl CoA is expressed as an IC50."}, "[2]": {"target": "T2, SCD1 enzyme in intact human cells (Homo sapiens, UniProt O00767)", "T2 construct": "The cells were received as pre-adipocytes and then differentiated for 5 days in a 384 well format; host or cells: cryopreserved human subcutaneous preadipocytes, differentiated to adipocytes", "T2 sequence (O00767 1-359)": "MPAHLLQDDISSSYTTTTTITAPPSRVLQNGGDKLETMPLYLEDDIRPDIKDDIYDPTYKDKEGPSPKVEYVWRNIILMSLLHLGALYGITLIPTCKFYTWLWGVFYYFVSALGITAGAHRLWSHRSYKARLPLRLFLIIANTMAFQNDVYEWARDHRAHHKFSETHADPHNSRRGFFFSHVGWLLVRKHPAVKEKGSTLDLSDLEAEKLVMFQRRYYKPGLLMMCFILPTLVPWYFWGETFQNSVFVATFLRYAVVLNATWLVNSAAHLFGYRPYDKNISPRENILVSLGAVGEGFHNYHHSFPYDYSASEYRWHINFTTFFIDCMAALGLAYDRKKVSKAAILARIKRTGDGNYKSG", "test": "Human adipocyte (AdipoRed) assay: production of triglycerides", "format": "cell-based", "settings": "differentiated human subcutaneous adipocytes; 6 days compound treatment; mean of N=6; read-out: IC50, inhibition of the production of triglycerides", "description": "The role of SCD1 is believed to be similar in adipocytes and sebocytes. The ability of the compound to inhibit the SCD1 enzyme in intact human cells was determined using the Human AdipoRed assay as described below. The cells were received as pre-adipocytes and then differentiated for 5 days in a 384 well format. The compound is added at various concentrations for 6 days. The production of triglycerides was then assessed by a unique dye which specifically binds to secreted triglycerides. The ability to inhibit the production of triglycerides is expressed as an IC50.\nCryopreserved subcutaneous preadipocytes (Cat #: PT-5001 Supplier: Cambrex Bio Science) were briefly thawed in 37 C and spin down at 1000 rpm for 5 minutes. Preadipocyte are resuspended in 30 ml of Growth Media (GM, Cat #: PT-8202 Cambrex Bio Science) and are diluted to final concentration of 75,000 cells/ml. 40 μl of Cells are then plated into wells of 384-Well BD Falcon polystyrene assay plate at the density of 3,000 cells (40 μl) per well. […]\nAfter 5 days' differentiation, cells were treated with 2 μl of the compound from 96-well compound plate in duplicate by Biomek FX. […] The accumulation of intracellular triglycerides is then quantified by measuring fluoresce at 572 nm on a SpectraMax M5 microplate reader."}, "[3]": {"settings": "dose response experiment, formulated in propylene glycol:ethanol 30.70 (w/v), topical"}, "[4]": {"settings": "dosed at 1.5% in propylene glycol/transcutanol/ethanol 20/20/60, topical BID, 2 weeks, hamster ear"}, "[5]": {"settings": "two week topical BID application, propylene glycol:ethanol 30.70"}}}
{"smiles": "CCOC(=O)/C=C(C)/C=C/C=C(C)/C=C/c1c(C)cc(OC)c(C)c1C", "note": "[etretinate]", "values": [{"measurement": "effect on sebum synthesis", "setting": "sebum production; Zouboulis 2004", "value": "do not reduce sebum synthesis"}]}
{"smiles": "CC1=C(/C=C/C(C)=C/C=C/C(C)=C\\C(=O)O)C(C)(C)CCC1", "note": "[Isotretinoin]", "values": [{"measurement": "suppression of sebum production", "setting": "sebum production", "value": "up to 90%"}]}
{"smiles": "O=C(COc1ccc(CO)cc1)N1CC[C@H](Oc2ccccc2C(F)(F)F)C1", "note": "[compound of Formula I, (S)-2-(4-(hydroxymethyl)phenoxy)-1-(3-(2-(trifluoromethyl)phenoxy)pyrroli-din-1-yl)ethanone]", "values": [{"measurement": "CE and WE production, dose response", "setting": "male Syrian hamsters; [3]", "value": "dose dependent decrease of both CE and WE production"}, {"measurement": "sebaceous gland size and number, histology", "setting": "male Syrian hamsters; [3]", "value": "Dose related changes in sebaceous gland size and number"}, {"measurement": "reduction in cholesterol ester (CE) compared to vehicle control", "setting": "male Syrian hamsters; [4]", "value": 62, "unit": "%"}, {"measurement": "reduction in wax ester (WE) compared to vehicle control", "setting": "male Syrian hamsters; [4]", "value": 82, "unit": "%"}, {"measurement": "sebaceous gland size", "setting": "male Syrian hamsters; [4]", "value": "reduction in sebaceous gland size"}, {"measurement": "ED50 based on WE reduction", "setting": "male Syrian hamsters; [5]", "value": 0.3, "unit": "%"}, {"measurement": "ED50 based on WE reduction, per area", "setting": "male Syrian hamsters; [5]", "value": 0.025, "unit": "mg/cm^2"}, {"measurement": "IC50", "setting": "[1]", "value": 5.8, "unit": "nM"}, {"measurement": "IC50", "setting": "[2]", "value": 6.8, "unit": "nM"}]}
